Structures are written as SMILES.

One data set can be described thus: in vitro. As to conditions: human, hela cells, % viability.
Broadly, the viability is a read-out of living cells in per cent, often relative to untreated cells. As to `O=S(=O)(NCc1nc2ccccc2[nH]1)c1ccc(Cl)c(Cl)c1` [CBK261137], the viability at 28.5 h, 10 µM came out at 86.2%.
Consider `CCOc1ccc(-n2c(SCc3nc(-c4ccc(C)cc4)no3)nnc2-c2ccncc2)cc1` [CBK268315], for which the viability at 28.5 h, 10 µM was 98.3%.
Same read-out and setting: the value for `O=C(NCCc1ccc(O)cc1)C1(c2ccccc2)CCCC1` [CBK149535] was 84.9%; that for `O=C(c1ccc([N+](=O)[O-])cc1)n1nc(-c2cccnc2)nc1NCc1ccc(F)cc1` [CBK268962] was 96.6%.
In the case of `COC(=O)c1sc2cc(NC(=S)NNC(=O)c3ccoc3C)ccc2c1Cl` [CBK266877], the viability at 28.5 h, 10 µM came out at 83.3%.
For the molecule `CCCc1n[nH]c(C2CCCC2)c1C(=O)OCC` [CBK115727], the viability at 28.5 h, 10 µM was determined as 85.1%.
Regarding `CCCC/C=C/c1cncc(N[C@@H](C)c2ccccc2)n1` [CBK065472], the viability at 28.5 h, 10 µM worked out at 109%.
On the same count and under the same terms, the value for `Cc1cccc(OCCCn2cncc2-c2cnn(C)c2)c1` [CBK281763] was 82%; that for `CC(C)(C)OC(=O)N1CCCC2(CCCN(C(=O)c3ccco3)C2)C1` (stereo not shown) [CBK284463] was 94.7%; that for `CC(C)Oc1ncc(C(=O)NCc2cccc(NC(N)=O)c2)cc1Cl` [CBK306327] was 94.4%.
Same read-out and setting: the value for `CCOC(=O)CCCNC(=O)N1CCN(Cc2ccccc2)CC1` [CBK155664] was 89.2%; that for `COC(=O)c1sc(NC(=S)Nc2ccn(C)n2)c(C(=O)OC)c1C` [CBK267078] was 99.5%.
Same read-out and setting: the value for `Cc1noc(C)c1CC(=O)Nc1cccc(CN2CCCCCC2)c1` [CBK281407] was 105%; that for `CN1CCN(CCCNC(=O)N2CCN(c3ccc(F)cc3)CC2)CC1` [CBK156386] was 91.2%; that for `O=C(O)COc1cccc(NS(=O)(=O)c2ccc(Br)cc2)c1` [CBK286911] was 111%.
Regarding `CCOC(=O)N1CCC(NS(=O)(=O)c2cc(Br)ccc2OC)CC1` [CBK045463], the viability at 28.5 h, 10 µM is 115%.
The same measure, in the same setting: the value for `O=C(O)CCC(=O)Nc1ccccc1C(=O)N1CCCCC1` [CBK266100] was 99.5%.
On to `C[S+]([O-])CC(O)(c1ccc(F)cc1)C1CC1` (stereo not shown) [CBK025846], for which the viability at 28.5 h, 10 µM was 114%.
On the same count and under the same terms, the value for `CCc1nc2ccccc2n1C1CCN(C(=O)Cc2cccnc2)CC1` [CBK306389] was 100%; that for `CCOc1ccc2nc(NS(=O)(=O)c3cc(C(=O)O)c(Cl)cc3Cl)sc2c1` [CBK299789] was 109%; that for `CC(=O)c1ccc(-c2ccc(C(=O)NCC3COc4ccccc4O3)c(N(C)C(C)=O)n2)s1` (stereo not shown) [CBK076637] was 114%.
In the case of `CC(C)N1CCC(=NNC(=O)c2cc(O)c(O)c(O)c2)CC1` [CBK262626], the viability at 28.5 h, 10 µM worked out at 117%.
Consider `CC(=O)Nc1ccc(CNc2nnc(C3CCCCC3)o2)cc1` [CBK306427], for which the viability at 28.5 h, 10 µM amounted to 105%.
Regarding `OC(CSc1ccccc1)CN1CCC(Nc2nccc(C(F)(F)F)n2)CC1` (stereo not shown) [CBK074648], the viability at 28.5 h, 10 µM worked out at 94.5%.
The same measure, in the same setting: the value for `COc1ccc(N2C(=O)CC(Sc3ncccc3C(=O)O)C2=O)cc1` (stereo not shown) [CBK263387] was 95.5%.
Take `COc1ccc(N2CCN(C(=S)c3ccc(OCC(N)=O)cc3)CC2)cc1` [CBK269190]: the viability at 28.5 h, 10 µM was 100%.
Take `Cc1cnc(CNC(=O)N2CCN(c3ccccc3)CC2)cn1` [CBK155174]: the viability at 28.5 h, 10 µM worked out at 101%.
Same read-out and setting: the value for `Cn1nnnc1SCCNCc1ccc2c(c1)n(C)c(=O)n2C` [CBK270080C] was 99.8%; that for `CC(C)C(=O)Nc1ccc(-c2ccsc2)c2ccccc12` [CBK083758] was 92.7%; that for `Nc1nonc1-c1nc2ccccc2n1Cc1ccc(-c2nn[nH]n2)cc1` [CBK267648] was 91.3%.
Still for that read-out and setting: the value for `CCCn1cnc2cc(NC(=O)Cn3cc(C(=O)NC4CCCCC4)ccc3=O)ccc21` [CBK286098] was 96.6%; that for `CC1CN(C)C(c2ccccc2)C(C)C12NC(=O)N=C2O` (stereo not shown) [CBK288428] was 88.1%; that for `Cc1nn(C)c(C)c1CN1CCN(C(=S)Nc2ccc(S(N)(=O)=O)cc2)CC1` [CBK267030] was 94.1%.
`COc1ccc(CC(=O)NC(CCSC)c2nnc3ccccn23)cc1` (stereo not shown) [CBK306077]: the viability at 28.5 h, 10 µM is 96%.
`OCC1CCCN1c1nccnc1-c1cccs1` (stereo not shown) [CBK089060]: the viability at 28.5 h, 10 µM came to 106%.
In the case of `CC(=O)c1ccc(-c2cnc3[nH]c(=O)n([C@H](C)c4ccccc4)c3n2)s1` [CBK064375], the viability at 28.5 h, 10 µM was found to be 98.2%.
Still for that read-out and setting: the value for `COc1cc(CN(C)CCc2ccccn2)c([N+](=O)[O-])cc1OC` [CBK261737G] was 88.3%; that for `CN1CCOc2ccccc2C(=O)NC/C=C/CC2(CCCN(Cc3cc[nH]n3)C2)C1=O` (stereo not shown) [CBK292175] was 103%; that for `COc1ccc(CCNc2nc(-c3ccccn3)cs2)cc1OC` [CBK267260] was 100%.
As for `Cc1cc(C(C)NC(=O)C2CCCN(S(C)(=O)=O)C2)c(C)s1` (stereo not shown) [CBK305464], the viability at 28.5 h, 10 µM is 98.4%.
The same measure, in the same setting: the value for `O=C(CSc1nnc2ccc3ccccc3n12)Nc1nsc(-c2ccc(Cl)cc2)n1` [CBK266460] was 99.5%; that for `CC(=O)N1CCc2cc(-c3cc4cc(C)ccn4c3)ccc21` [CBK285228] was 75.2%; that for `Cc1ccc2cc(S(=O)(=O)NCCCC(=O)O)ccc2c1` [CBK299818] was 95.8%.
As for `Cc1noc(C)c1C(=O)N1CCN(c2ccccc2)CC1` [CBK200165], the viability at 28.5 h, 10 µM worked out at 97.8%.
The same measure, in the same setting: the value for `CCc1cc(CNC(=O)c2ccc(C)c(-n3nc(C)cc3C)c2)on1` [CBK281557] was 91.7%.
Same read-out and setting: the value for `Cn1nccc1CCNS(=O)(=O)c1cccc(C(=O)N2CCCCC2)c1` [CBK307086] was 89.2%.
On to `Cc1ncsc1C(=O)N1CCC(c2cccc(Cc3ccc(C(F)(F)F)cc3)n2)CC1` [CBK286216], for which the viability at 28.5 h, 10 µM was 99.5%.
On the same count and under the same terms, the value for `O=C(C1CC2C=CC1C21CC1)N1CCC(Oc2cccnc2)CC1` (stereo not shown) [CBK281501] was 101%; that for `CC(C)c1cc(C(=O)NC2CCOc3ccccc32)no1` (stereo not shown) [CBK283065] was 93.9%; that for `COCCN1C(=O)C2(CC(=O)N(CC(=O)C(C)(C)C)C2=O)c2ccccc21` (stereo not shown) [CBK075324] was 118%.
Still for that read-out and setting: the value for `COc1cccc([C@H]2CN(C(C)=O)[C@@H]3CCN(C4CCCC4)C[C@H]23)c1` [CBK283375] was 89.7%.
Still for that read-out and setting: the value for `CCOc1cc2c(cc1NS(=O)(=O)c1cc(C(=O)O)ccc1C)OC(C)C2` (stereo not shown) [CBK296711] was 101%; that for `COCCNC(=O)c1nnn(-c2ccc(Br)cc2)c1C` [CBK300524] was 93.3%; that for `CC(C)NC(=O)c1cc(C2CCN(C(=O)CCCc3ccc(F)cc3)C2)nc2ccccc12` (stereo not shown) [CBK285921] was 95.2%.
With `Cc1ccc(C2CCC(C(=O)O)C(C(=O)O)C2)cc1C` (stereo not shown) [CBK287184], the viability at 28.5 h, 10 µM worked out at 98.2%.
Same read-out and setting: the value for `CCNS(=O)(=O)c1ccc2c(c1)N(Cc1n[nH]c(CC)n1)CC2` [CBK306434] was 86.9%; that for `Cc1cnn(-c2cc(N3CCC(n4cc(C5CC5)nn4)CC3)ncn2)c1` [CBK306721] was 96.2%; that for `CC(C)c1csc(NC(=O)CC2CCN(S(=O)(=O)c3cccc(F)c3)CC2)n1` [CBK285902] was 83.4%.
Consider `CN(Cc1cc(Br)cs1)C(=O)CCN1C(=O)COc2ccccc21` [CBK298308], for which the viability at 28.5 h, 10 µM was determined as 90%.
Same read-out and setting: the value for `Cc1csc(N2CCN(CC(O)COCc3ccco3)CC2)n1` (stereo not shown) [CBK306151] was 98.5%.
In the case of `CC(Nc1cccc2ccccc12)C(=O)N/N=C/c1ccc([N+](=O)[O-])cc1` (stereo not shown) [CBK262676], the viability at 28.5 h, 10 µM was 84.2%.
`CCc1nc2ccc(C(=O)NCCN3CCCC3)cn2c1N(C)C(=O)c1ccncc1` [CBK146655]: the viability at 28.5 h, 10 µM stood at 90.5%.
For `Cc1c(NC(=S)NCCCN2CCOCC2)c(=O)n(-c2ccccc2)n1C` [CBK008032], the viability at 28.5 h, 10 µM came out at 90.7%.
On the same count and under the same terms, the value for `Cc1cc(C)c(NC(=O)CSc2nc(C)c(Cc3ccccc3Cl)c(O)n2)c([N+](=O)[O-])c1` [CBK268693] was 90.4%; that for `O=C(CSCCOc1ccc(Br)cc1)Nc1ccc2c(c1)OCCO2` [CBK296714] was 108%.
Consider `COc1ccc(C)cc1-n1ccc(C(=O)N2CCSCC2)n1` [CBK305972], for which the viability at 28.5 h, 10 µM is 96.5%.
The same measure, in the same setting: the value for `CC(C)Nc1cncc(Sc2ccccc2O)n1` [CBK091438] was 88%; that for `O=C(Nc1nnc(-c2ccc3c(c2)OCCO3)o1)c1ccccc1F` [CBK287405] was 112%; that for `Cc1ccc(S(=O)(=O)N(CC(=O)O)c2ccc(Cl)cc2)cc1` [CBK263767] was 106%.
As to `Cc1cc(F)c(S(=O)(=O)NCCN2CCOCC2)cc1NC(=O)c1ccc(Br)o1` [CBK059091C], the viability at 28.5 h, 10 µM is 89.7%.
As to `Cc1cc(NC(=O)C2CCN(C(=O)CCSc3ccccc3)CC2)no1` [CBK304329], the viability at 28.5 h, 10 µM is 99%.
Turning to `CCCC(=O)Nc1ccccc1OC1CCNCC1` [CBK045902T], the viability at 28.5 h, 10 µM came out at 98%.
The same measure, in the same setting: the value for `O=C(O)C[C@]1(C(=O)Nc2ccc(F)cc2)CC(/C=C/c2ccccc2)=NO1` [CBK286608] was 87.3%.
Consider `Oc1c(C(Nc2cccnc2)c2ccccc2OCc2ccccc2)ccc2cccnc12` (stereo not shown) [CBK268587], for which the viability at 28.5 h, 10 µM turned out to be 71.5%.
In the case of `COc1ccc(Nc2nc(-c3cccc(-c4ccccc4)c3)cnc2N)cc1` [CBK063593], the viability at 28.5 h, 10 µM turned out to be 89.8%.
Same read-out and setting: the value for `CN(C)c1cccc(OCCn2ccnc(N3CCNCC3)c2=O)c1` [CBK013866F] was 114%; that for `COc1ccc(C(=O)N2CCC3(CCN(Cc4cc(=O)[nH]c(=O)[nH]4)C3)C2)cc1OC` (stereo not shown) [CBK132162] was 108%.
On the same count and under the same terms, the value for `O=C(c1cc(F)c(F)cc1F)N1CCC2(CCCN(CCCn3c(=O)[nH]c4ccccc43)C2)C1` (stereo not shown) [CBK132004] was 84.9%.

Still in this data set, the particulars now being: human, hela cells, % viability, bulk resorufin, single well.
Regarding `CCCC(=O)C1(c2ccccc2)CCN(C(=O)Nc2cccc(SC)c2)CC1` [CBK016441], the viability at 28.5 h, 10 µM was 94.6%.
